Measured values as given in patent US4975418A, “Therapeutically active compositions of pseudo-peptide of glutamyl-aspartic acid” (Centre National de la Recherche Scientific (CNRS), priority 1986, dated 1990).

Tested on: SWISS mouse
Test: convulsive crises induced by intraperitoneal pentylenetetrazole in the SWISS mouse
Format: in vivo
Settings: given after pentylenetetrazole about 85 mg/kg i.p.
Description: During the first stages of the preparation and development of epileptic drugs it is necessary to generate experimental convulsive crises in an animal. The experimental convulsive crises make it possible to identify anticonvulsants, the anti-epileptic properties of which will be subsequently verified.
That is the reason why convulsive crises are induced in the SWISS mouse by the intraperitoneal injection of pentylenetetrazole at a dose of about 85 mg/kg.
Pentylenetetrazole is a bulbar excitant which, at this dose, causes convulsive crises in the mouse and the rabbit in a classical fashion with several well-characterized stages.
The subsequent intraperitoneal administration of the substance of formula I according to the invention brought about a suppression of these crises under the following conditions:
The subsequent intraperitoneal administration of N-γ-D-glutamyl-D-aspartic was also carried out and brought about the suppression of crises under the following conditions: […]

[1] = dose 285 nmol/kg intraperitoneal

SMILES	suppression of crises, % of the animals (dose 71 nmol/kg intraperitoneal)	suppression of crises, % of the animals [1]	suppression of crises, % of the animals (dose 142.5 nmol/kg intraperitoneal)	suppression of crises, % of the animals (dose 570 nmol/kg intraperitoneal)
N[C@H](CCC(=O)N[C@H](CC(=O)O)C(=O)O)C(=O)O [N-γ-D-glutamyl-D-aspartic, N-γ-D-glutamyl-D-aspartic acid]	40%	60%		
N[C@@H](CCC(=O)N[C@@H](CC(=O)O)C(=O)O)C(=O)O [formula I, N-γ-L-glutamyl-L-aspartate]		50%	50%	70%
